We go through one compound from patent US20040110124A1, “Method of enhancing radiation resistance of normal cells” (priority 2002, published 2004).

Structures are written as SMILES.

Holding throughout (type): cell-based
Assay [1] relates to Rat-1 cells. Put plainly: Membrane potential recorded with fluorescent probe bis-oxonol. The protocol:
FIG. 1. Fluorescence measurement of Rat-1 cells before (Line A) and after (Line B) valinomycin (1.0 μM) treatment.
(§1) Three normal cell lines (Rat-1, a fibroblast cell line; MS-1, an endothelial cell line and MDCK, a epithelial cell line) were studied. All three cell lines were cultured in Dulbecco's modified Eagle medium supplemented with 10% fetal calf serum, 100 U/ml penicillin and 100 ug/ml streptomycin (Gibco BRL, Gaithersburg, Md.) at 37° C. with 5% CO2. Cells were irradiated with a ^137Cs source at a dose rate of 300 cGy/min, and the viability of cells was measured by the MTT assay. Valinomycin was used as an agent to hyperpolarize the plasma membrane. The membrane potential was recorded with a fluorescent probe bis-oxonol, a negatively charged potential-sensitive fluorescent dye, which is distributed across the plasma membrane. Binding of this probe to intracellular components is dependent upon the membrane potential.

The test system of assay [2] is MS1 endothelial cells. As to the kind of experiment: Cell survival after irradiation, MTT assay, normal endothelial cells. The settings on record: light or radiation study, MS-1, irradiated at 20 Gy, 1.0 μM valinomycin for 2 hours, 45% without valinomycin, read-out: relative survival (% of control). The protocol: (§2) FIG. 3. Effect of valinomycin on radiation response of normal endothelial cells. MS1 endothelial cells were irradiated with 0-20 Gy in the presence or absence of valinomycin. Valinomycin (0.01-1.0 μM) was added in the growth media immediately prior to irradiation, and removed at 2 hours or 3 days post irradiation. Three days after irradiation, cell survival was assessed by using the MTT assay.
as §1
(Formazan colour is commonly taken as a measure of viable cells.)

Assay [3] has as its system MDCK epithelial cells. As to the kind of experiment: Cell survival after irradiation, MTT assay, normal epithelial cells. The settings on record: Canis lupus familiaris, light or radiation study, irradiated at 20 Gy, 1.0 μM valinomycin for 2 hours, 58% without valinomycin, read-out: relative survival (% of control). On the procedure: FIG. 4. Effect of valinomycin on radiation response of normal epithelial cells. MDCK epithelial cells were irradiated with 0-20 Gy in the presence or absence of valinomycin. Valinomycin (0.01-1.0 μM) was added in the growth media immediately prior to irradiation, and removed at 2 hours or 3 days post irradiation. Three days after irradiation, cell survival was assessed by using the MTT assay.
as §1

Assay [4] deals with Rat-1, MS-1 and MDCK cells. Put plainly: Cell survival after irradiation, MTT assay, all three normal cell lines together. The settings on record: valinomycin 0.01 μM to 1.0 μM. The protocol: (§3) FIG. 2. Effect of valinomycin on radiation response of normal fibroblast cells. Rat-1 fibroblast cells were irradiated with 0-20 Gy in presence or absence of valinomycin. Valinomycin (0.01-1.0 μM) was added in the growth media immediately prior to irradiation, and removed at 2 hours or 3 days post irradiation. Three days after irradiation, cell survival was assessed by using the MTT assay.
as §2
FIG. 4. Effect of valinomycin on radiation response of normal epithelial cells. […] Three days after irradiation, cell survival was assessed by using the MTT assay.
Three normal cell lines (Rat-1, a fibroblast cell line; MS-1, an endothelial cell line and MDCK, a epithelial cell line) were studied. […] Cells were irradiated with a ^137Cs source at a dose rate of 300 cGy/min, and the viability of cells was measured by the MTT assay. […] The membrane potential was recorded with a fluorescent probe bis-oxonol, a negatively charged potential-sensitive fluorescent dye, which is distributed across the plasma membrane. […]

The test system of assay [5] is Rat-1 fibroblast cells. As to the kind of experiment: Cell survival after irradiation, MTT assay, normal fibroblast cells. The settings on record: light or radiation study, Rat-1, irradiated at 20 Gy, 1.0 μM valinomycin for 2 hours, 25% without valinomycin, read-out: relative survival (% of control). The protocol:
as §3, §1

With `CC(C)[C@@H]1NC(=O)[C@H](C)OC(=O)[C@@H](C(C)C)NC(=O)[C@@H](C(C)C)OC(=O)[C@H](C(C)C)NC(=O)[C@H](C)OC(=O)[C@@H](C(C)C)NC(=O)[C@@H](C(C)C)OC(=O)[C@H](C(C)C)NC(=O)[C@H](C)OC(=O)[C@@H](C(C)C)NC(=O)[C@@H](C(C)C)OC1=O` [valinomycin], the “fluorescent reading, plasma membrane polarization” value in assay [1] (valinomycin 1.0 μM, incubation 2 hours, Rat-1 cells (FIG. 1)) was “decrease in fluorescent reading”. In assay [1] (valinomycin 0.01-1 nM for 2 hours or 3 days), the “decrease of intracellular fluorescence (bis-oxonol)” value is on record as 55-60%. Besides, the “intracellular fluorescence after valinomycin treatment” value in assay [1] (valinomycin 0.01-1 nM for 2 hours or 3 days, 0.44-0.5 prior to treatment) is reported as 0.18-0.20. For the same compound, the activity at 1 µM was 92% in assay [2], 82% in assay [3] and 67% in assay [5]. The “radiation protective effect across concentrations” value in assay [4] is “very similar radiation protective effects”.
